SMILES strings stand for the structures. Values joined by “and” are separate entries in the source; they are usually repeats but may differ in a detail not shown here. Equal entries are not always repeated.

What is called viability, T/C is the result in the treated group divided by that in the control group, in per cent. Usually IC50 stands for the concentration at which inhibition is half-maximal.

This test concerns 653999-131-R-J2-PDC complex spheroid viability. Kind of test: Anticancer human tumor 653999-131-R-J2-PDC patient-derived lung adenocarcinoma cell line growth inhibition. Conditions: for viability, T/C: stronger effect = lower value. The text has this: Multicellular complex tumor spheroid response to LSD1 Inhibitor Iadademstat in combination with a variety of drugs and investigational agents in selected tumor cell lines
The current study was undertaken to assess response to LSD1 inhibitors in combination with standard-of-care drugs and investigational agents in solid tumor complex spheroid models as well as in the K-562 leukemia. Complex spheroids include a stromal component modeled by human endothelial cells (HUVEC) and fibroblasts modeled by human mesenchymal stem cells (MSCs). The concentration ranges selected for each drug and investigational agent were based upon clinically achievable concentrations if the clinical Cmax of the agent was known.
Compounds. The drugs and investigational agents used in this study are listed on Table 1. All of the agents used, including staurosporine (NSC755774) and gemcitabine (NSC613327), were obtained from the Developmental Therapeutics Program, NCI. FDA-approved anticancer drugs are available from the NCI at http://dtp.nci.nih.gov/branches/dscb/oncology_drugset_explanation.html. Drugs and investigational agents were >95% pure by proton nuclear magnetic resonance (NMR) and liquid chromatography/mass spectrometry (LC/MS). Stock solutions were prepared at 400x in DMSO, stored at -70 degrees C, and diluted in fresh medium prior to their use. The final concentration of DMSO in cell culture wells never exceeded 0.25% (v/v). The FDA-approved anticancer drug set is available from the Developmental Therapeutics Program at https://dtp.cancer.gov/organization/dscb/obtaining/available_plates.htm. All drugs and investigational agents were tested over a range starting from a high concentration at or near the clinical Cmax and decreasing in half-log increments. If the clinical Cmax for an agent had not been determined, the highest concentration tested was 10 microM.
Cell Lines. The patient-derived cancer cell (PDC) lines: 292921-168-R-J2-PDC, K24384-001-R-PDC, and 521955-158-R2-J5-PDC pancreatic carcinomas, 556581-035-R-J1 ovarian carcinoma, 324938-238-R-J1-PDC, 855422-203-R-J1-PDC and 883617-216-R-J1-PDC urothelial bladder carcinomas, 743489-274-T-PDC renal cell carcinoma, 138582-R-J1 Merkel cell tumor, K60290-347-R-J1 and K57222-313-R-J1-PDC glioblastomas, 653999-131-R-J2-PDC, LG0703-F948-PDC, and 349418-098-R-PDC non-small cell lung carcinomas, 885512-296-R-J2-PDC, 171881-019-R-J1-PDC breast carcinomas and 186277-243-T-J2-PDC and 233499-124-R-J2-PDC colon carcinomas were obtained from the NCI Patient-Derived Models Repository (PDMR, https://pdmr.cancer.gov). The established cell lines NCI/ADR-RES (RRID:CVCL_14520 and OVCAR-5 (RRID:CVCL_1628) ovarian carcinomas, 786-O (RRID:CVCL_1051) and A498 (RRID:CVCL_A498) renal cell carcinoma, NCI-H211 (ATCC, cat. CRL-5824; RRID:CVCL_1529), NCI-H196 (ATCC, cat. CRL-5823, RRID:CVCL_1509), SW 1271 (ATCC, cat. CRL-2177, RRID:CVCL_1716) and NCI-H1876 (ATCC, cat. CRL-5902, RRID:CVCL_1503) small cell lung carcinomas, MDA-MB-231 (RRID:CVCL_0062) and MDA-MB-468 (RRID:CVCL_0419)breast carcinomas (10-12). Pooled donor human umbilical vein endothelial cells (HUVEC, Lonza, cat. CC-2519) and human mesenchymal stem cells (hMSC, Lonza, cat. PT-2501) were purchased from Lonza (Walkersville, MD).
Cell Culture. All cells were maintained in an incubator at 37 degrees C and 5% CO2 with 95% humidity. The PDC lines were cultured according to standard operating procedures established by the NCI PDMR (https://pdmr.cancer.gov). Briefly all PDCs were thawed and cultured in Matrigel-coated flasks prepared with a working solution of 1X Ham's F-12 nutrient mix, without supplementation (Invitrogen, Waltham, MA, cat. 11765054), 100 U/mL penicillin-streptomycin (Invitrogen, cat. 15140122), and 2.5% Matrigel (Corning Inc., Corning, NY, cat. 354248) for the first three passages. […]
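Further: spheroids exposed to agents for seven days before readout.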

As for `CC(C)c1c(-c2ccccc2)nc2c(C#N)c[nH]n2c1=O`, the viability, T/C (compound 0.0316 µM) is 98.4% and 88.9%; the viability, T/C (compound 0.1 µM) was 107% and 94.6%; the viability, T/C (compound 0.316 µM) was 108% and 93.6%; the viability, T/C (compound 1 µM) was 116% and 98.2%; the viability, T/C (compound 3.16 µM) is 109% and 88.9%; the viability, T/C (compound 10 µM) was 94.7% and 88.9%. Under “curve of compound”, the IC50 was over 10000 nM.

Take `CC1COCCN1c1cc(C2(S(C)(=N)=O)CC2)nc(-c2ccnc3[nH]ccc23)n1` (stereo not given): the viability, T/C was 107% and 106% (compound 0.0316 µM); 85.1% and 117% (compound 0.1 µM); 79.9% and 107% (compound 0.316 µM); 57.8% and 84.8% (compound 1 µM); 38.3% and 58.8% (compound 3.16 µM); 37.8% and 56.7% (compound 10 µM). For the same compound, the IC50 (curve of compound) is 1810 nM and > 10000 nM.

As to `COc1ccc([C@@H](O)c2cc(-c3ncnc4cc(N5CCOCC5)ccc34)c(F)cc2Cl)nn1`, the viability, T/C reads like this: (compound 0.0316 µM) 101% and 104%; (compound 0.1 µM) 93.2% and 96.7%; (compound 0.316 µM) 77.3% and 87.9%; (compound 1 µM) 61.9% and 64.3%; (compound 3.16 µM) 44.9% and 50.9%; (compound 10 µM) 29.5% and 30.6%. The IC50 (curve of compound) was 2190 nM and 2880 nM.

Consider `NC1CC1c1ccc(-c2cccc(O)c2)cc1` (stereo not given), for which the IC50 (compound alone, run of 02/01/2022) was over 10000 nM.

For `NC1CCC(NC2CC2c2ccccc2)CC1` (stereo not given), the viability, T/C was 85.8% and 90% (compound 0.316 µM); 86.8% [middle of 25 runs] (compound 1 µM). The IC50 (compound alone, run of 01/18/2022) was over 10000 nM.

Regarding `Nc1ncn(C2CC(O)C(CO)O2)c(=O)n1` (stereo not given) + NC1CC1c1ccc(-c2cccc(O)c2)cc1, the IC50 was over 1000 nM (curve of first compound, second compound 0.1 µM); over 1000 nM (curve of first compound, second compound 0.316 µM); over 1000 nM (curve of first compound, second compound 1 µM); over 1000 nM (curve of first compound, second compound 3.16 µM); over 1000 nM (curve of first compound, second compound 10 µM). In addition, the viability, T/C reads like this: (second compound 0.1 µM, first compound 0.00316 µM) 103%; (second compound 0.1 µM, first compound 0.01 µM) 101%; (second compound 0.1 µM, first compound 0.0316 µM) 96.3%; (second compound 0.1 µM, first compound 0.1 µM) 79.4%; (second compound 0.1 µM, first compound 0.316 µM) 83.6%; (second compound 0.1 µM, first compound 1 µM) 73.5%. Further, the viability, T/C reads like this: (second compound 0.316 µM, first compound 0.00316 µM) 87.8%; (second compound 0.316 µM, first compound 0.01 µM) 113%; (second compound 0.316 µM, first compound 0.0316 µM) 87.8%; (second compound 0.316 µM, first compound 0.1 µM) 87.5%; (second compound 0.316 µM, first compound 0.316 µM) 85.4%; (second compound 0.316 µM, first compound 1 µM) 79.9%. In addition, the viability, T/C (second compound 1 µM, first compound 0.00316 µM) was 91.2%; the viability, T/C (second compound 1 µM, first compound 0.01 µM) is 92%; the viability, T/C (second compound 1 µM, first compound 0.0316 µM) is 95.5%; the viability, T/C (second compound 1 µM, first compound 0.1 µM) is 81.3%; the viability, T/C (second compound 1 µM, first compound 0.316 µM) was 86.5%; the viability, T/C (second compound 1 µM, first compound 1 µM) was 67.5%. For the same compound, the viability, T/C (second compound 3.16 µM, first compound 0.00316 µM) is 94%; the viability, T/C (second compound 3.16 µM, first compound 0.01 µM) is 112%; the viability, T/C (second compound 3.16 µM, first compound 0.0316 µM) is 93.7%; the viability, T/C (second compound 3.16 µM, first compound 0.1 µM) is 101%; the viability, T/C (second compound 3.16 µM, first compound 0.316 µM) was 93.8%; the viability, T/C (second compound 3.16 µM, first compound 1 µM) was 90%. Also, the viability, T/C is 94.3% (second compound 10 µM, first compound 0.00316 µM); 103% (second compound 10 µM, first compound 0.01 µM); 90.7% (second compound 10 µM, first compound 0.0316 µM); 93.5% (second compound 10 µM, first compound 0.1 µM); 84.8% (second compound 10 µM, first compound 0.316 µM); 95.6% (second compound 10 µM, first compound 1 µM).

Values taken from PubChem BioAssay AID1918939 (Molecular Pharmacology Branch, DTP, NCI, 2023).
